# Activity calls are given as the source filed them. The calls are words filed in the database; no cut-off is given here. Peptide text beside a SMILES is read from it. * marks the point of attachment. Cbz = O=C(OCc1ccccc1)*; CH2F = FC*
# How the values were obtained:
# NB-4 [1] = assay: Antiproliferative activity against human NB4 cells expressing PML/RARalpha assessed as cell growth inhibition measured after 48 hrs by CCK-8 assay; format: functional, cell-based
# [2] = target: T1, PML-RARalpha (Homo sapiens) (UniProt P10276+P29590); assay: Induction of Flag-tagged PML/RARalpha (unknown origin) degradation overexpressed in HEK293T cells at 0.3 to 1.5 uM incubated for 16 hrs by Western blot analysis; format: cell-based; conditions: dose 0.3-1.5 µM
# T1 sequence (P10276 whole entry, looked up): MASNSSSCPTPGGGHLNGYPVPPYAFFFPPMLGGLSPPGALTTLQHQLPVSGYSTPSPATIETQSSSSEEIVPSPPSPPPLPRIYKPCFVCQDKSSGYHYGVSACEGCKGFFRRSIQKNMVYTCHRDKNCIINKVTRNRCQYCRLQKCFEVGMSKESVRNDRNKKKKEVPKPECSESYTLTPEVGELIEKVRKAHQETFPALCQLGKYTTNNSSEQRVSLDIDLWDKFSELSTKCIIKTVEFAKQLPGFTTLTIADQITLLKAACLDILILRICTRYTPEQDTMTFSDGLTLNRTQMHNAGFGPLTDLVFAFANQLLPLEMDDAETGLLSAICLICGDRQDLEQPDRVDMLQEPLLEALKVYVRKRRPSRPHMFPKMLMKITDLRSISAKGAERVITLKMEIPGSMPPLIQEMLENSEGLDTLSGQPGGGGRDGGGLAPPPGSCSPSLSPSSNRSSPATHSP
# T1 sequence (P29590 whole entry, looked up): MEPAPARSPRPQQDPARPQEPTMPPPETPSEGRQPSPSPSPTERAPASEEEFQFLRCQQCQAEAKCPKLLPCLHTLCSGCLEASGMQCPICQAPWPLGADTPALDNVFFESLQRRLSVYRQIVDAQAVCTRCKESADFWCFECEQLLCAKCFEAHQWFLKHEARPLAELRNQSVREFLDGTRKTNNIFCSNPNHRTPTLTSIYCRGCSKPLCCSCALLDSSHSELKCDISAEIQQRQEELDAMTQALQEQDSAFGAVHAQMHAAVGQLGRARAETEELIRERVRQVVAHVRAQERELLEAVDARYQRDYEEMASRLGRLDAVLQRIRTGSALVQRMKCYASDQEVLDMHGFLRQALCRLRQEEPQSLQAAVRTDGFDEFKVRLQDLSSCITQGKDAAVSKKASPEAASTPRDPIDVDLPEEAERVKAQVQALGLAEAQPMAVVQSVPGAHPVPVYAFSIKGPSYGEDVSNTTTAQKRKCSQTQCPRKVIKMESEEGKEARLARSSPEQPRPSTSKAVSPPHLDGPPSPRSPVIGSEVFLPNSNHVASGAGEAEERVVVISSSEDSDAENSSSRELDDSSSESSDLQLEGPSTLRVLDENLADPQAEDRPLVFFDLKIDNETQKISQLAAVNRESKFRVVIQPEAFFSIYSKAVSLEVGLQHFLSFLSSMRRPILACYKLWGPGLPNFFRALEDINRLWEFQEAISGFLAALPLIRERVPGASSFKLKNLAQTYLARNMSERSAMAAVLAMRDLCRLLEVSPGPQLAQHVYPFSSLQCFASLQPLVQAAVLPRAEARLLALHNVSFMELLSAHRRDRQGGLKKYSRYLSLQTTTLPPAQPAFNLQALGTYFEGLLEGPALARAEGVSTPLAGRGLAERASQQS
# [3] = system: Cellular tumor antigen p53 (Homo sapiens), P04637 [V272M]; assay: Restoration of p53-V272M mutant transcriptional activity on CDKN1A promoter in human NCI-H1299 cells at 22 uM measured after 24 hrs by firefly/renilla based luciferase reporter assay; format: cell-based; conditions: filed as activator
# [4] = target: T1, PML-RARalpha (Homo sapiens); assay: Induction of Flag-tagged PML/RARalpha (unknown origin) degradation overexpressed in HEK293T cells at 7.2 to 36 uM incubated for 16 hrs by Western blot analysis; format: cell-based; conditions: dose 7.2-36 µM
# [5] = system: Cellular tumor antigen p53 (Homo sapiens), P04637 [V272M]; assay: Restoration of p53-V272M mutant transcriptional activity on PUMA promoter in human NCI-H1299 cells at 22 uM measured after 24 hrs by firefly/renilla based luciferase reporter assay; format: cell-based; conditions: filed as activator
# [6] = Plasma stability in mouse assessed as half life at […] measured upto 120 mins by LC-MS analysis; format: ADME, cell-free
# [7] = Plasma stability in monkey assessed as half life at […] measured upto 120 mins by LC-MS analysis; format: ADME, cell-free, Macaca mulatta; conditions: rhesus monkey
# [8] = Plasma stability in human assessed as half life at […] measured upto 120 mins by LC-MS analysis; format: ADME, cell-free
# [9] = system: Cellular tumor antigen p53 (Homo sapiens), P04637 [V272M]; assay: Thermostabilization of recombinant p53 V272M mutant (unknown origin) […] assessed as increase in melting temperature at 1:15 ratio in HEPES at pH 7.5 by DSF analysis
# NB-4 [10] = assay: Induction of apoptosis in human NB4 cells assessed as viable cells at 3 uM preincubated for 1 hrs followed by replacement with fresh culture medium and measured after 24 hrs by Annexin V-FITC/7AAD staining based flow cytometry assay (reference value: 94%); format: functional; conditions: read-out: Activity
# NB-4 [11] = assay: Induction of apoptosis in human NB4 cells assessed as early apoptotic cells at 3 uM preincubated for 1 hrs followed by replacement with fresh culture medium and measured after 24 hrs by Annexin V-FITC/7AAD staining based flow cytometry assay (reference value: 1.93%); format: functional
# NB-4 [12] = assay: Induction of apoptosis in human NB4 cells assessed as late apoptotic cells at 3 uM preincubated for 1 hrs followed by replacement with fresh culture medium and measured after 24 hrs by Annexin V-FITC/7AAD staining based flow cytometry assay (reference value: 3.92%); format: functional
# NB-4 [13] = assay: Induction of apoptosis in human NB4 cells assessed as necrotic cells at 3 uM preincubated for 1 hrs followed by replacement with fresh culture medium and measured after 24 hrs by Annexin V-FITC/7AAD staining based flow cytometry assay (reference value: 0.10%); format: functional
# NB-4 [14] = assay: Induction of apoptosis in human NB4 cells assessed as viable cells at 9 uM preincubated for 1 hrs followed by replacement with fresh culture medium and measured after 24 hrs by Annexin V-FITC/7AAD staining based flow cytometry assay (reference value: 94%); format: functional; conditions: read-out: Activity
# NB-4 [15] = assay: Induction of apoptosis in human NB4 cells assessed as early apoptotic cells at 9 uM preincubated for 1 hrs followed by replacement with fresh culture medium and measured after 24 hrs by Annexin V-FITC/7AAD staining based flow cytometry assay (reference value: 1.93%); format: functional
# NB-4 [16] = assay: Induction of apoptosis in human NB4 cells assessed as late apoptotic cells at 9 uM preincubated for 1 hrs followed by replacement with fresh culture medium and measured after 24 hrs by Annexin V-FITC/7AAD staining based flow cytometry assay (reference value: 3.92%); format: functional
# [17] = target: T1, PML-RARalpha (Homo sapiens); assay: Induction of PML/RARalpha degradation in human NB4 cells assessed as residual protein level at 0.1 uM incubated for 1 hrs followed by replacement with fresh culture medium and measured after 16 hrs by Western blot analysis (reference value: 1); format: cell-based
# [18] = target: T1, PML-RARalpha (Homo sapiens); assay: Induction of PML/RARalpha degradation in human NB4 cells assessed as residual protein level at 0.3 uM incubated for 1 hrs followed by replacement with fresh culture medium and measured after 16 hrs by Western blot analysis (reference value: 1); format: cell-based
# [19] = target: T1, PML-RARalpha (Homo sapiens); assay: Induction of PML/RARalpha degradation in human NB4 cells assessed as residual protein level at 1 uM incubated for 1 hrs followed by replacement with fresh culture medium and measured after 16 hrs by Western blot analysis (reference value: 1); format: cell-based
# [20] = target: T1, PML-RARalpha (Homo sapiens); assay: Induction of PML/RARalpha degradation in human NB4 cells assessed as residual protein level at 3 uM incubated for 1 hrs followed by replacement with fresh culture medium and measured after 16 hrs by Western blot analysis (reference value: 1); format: cell-based
# [21] = target: T1, PML-RARalpha (Homo sapiens); assay: Induction of PML/RARalpha degradation in human NB4 cells assessed as residual protein level at 9 uM incubated for 1 hrs followed by replacement with fresh culture medium and measured after 16 hrs by Western blot analysis (reference value: 1); format: cell-based
# NB-4 [22] = assay: Induction of granulocytic differentiation in human NB4 cells assessed as increase in CD11b expression at 3 uM incubated for 1 hrs followed by replacement with fresh culture medium for 48 hrs by flow cytometry analysis (reference value: 1.44%); format: functional
# NB-4 [23] = assay: Induction of granulocytic differentiation in human NB4 cells assessed as increase in CD11b expression at 9 uM incubated for 1 hrs followed by replacement with fresh culture medium for 48 hrs by flow cytometry analysis (reference value: 1.44%); format: functional
# NB-4 [24] = assay: Induction of granulocytic differentiation in human NB4 cells assessed as CD11b positive cells at 3 uM incubated for 1 hrs followed by replacement with fresh culture medium for 48 hrs by flow cytometry analysis relative to control; format: functional
# NB-4 [25] = assay: Induction of granulocytic differentiation in human NB4 cells assessed as CD11b positive cells at 9 uM incubated for 1 hrs followed by replacement with fresh culture medium for 48 hrs by flow cytometry analysis relative to control; format: functional
# NB-4 [26] = assay: Induction of apoptosis in human NB4 cells assessed as necrotic cells at 9 uM preincubated for 1 hrs followed by replacement with fresh culture medium and measured after 24 hrs by Annexin V-FITC/7AAD staining based flow cytometry assay (reference value: 0.10%); format: functional
# NB-4 [27] = assay: Induction of apoptosis in human NB4 cells assessed as viable cells at 27 uM preincubated for 1 hrs followed by replacement with fresh culture medium and measured after 24 hrs by Annexin V-FITC/7AAD staining based flow cytometry assay (reference value: 94%); format: functional; conditions: read-out: Activity
# NB-4 [28] = assay: Induction of apoptosis in human NB4 cells assessed as early apoptotic cells at 27 uM preincubated for 1 hrs followed by replacement with fresh culture medium and measured after 24 hrs by Annexin V-FITC/7AAD staining based flow cytometry assay (reference value: 1.93%); format: functional
# NB-4 [29] = assay: Induction of apoptosis in human NB4 cells assessed as late apoptotic cells at 27 uM preincubated for 1 hrs followed by replacement with fresh culture medium and measured after 24 hrs by Annexin V-FITC/7AAD staining based flow cytometry assay (reference value: 3.92%); format: functional
# NB-4 [30] = assay: Induction of apoptosis in human NB4 cells assessed as necrotic cells at 27 uM preincubated for 1 hrs followed by replacement with fresh culture medium and measured after 24 hrs by Annexin V-FITC/7AAD staining based flow cytometry assay (reference value: 0.10%); format: functional
# [31] = system: Cellular tumor antigen p53 (Homo sapiens), P04637 [V272M]; assay: Rescue of p53-V272M mutant transcriptional activity on PUMA promoter in human NCI-H1299 cells assessed as fold change in transcriptional activity at 10 uM pretreated for 10 mins to1 hr followed by replacement with fresh culture media and measured after 24 hrs by firefly/renilla based luciferase reporter assay; format: cell-based; conditions: filed as activator, time 10-60 min
# U-937 [32] = assay: Cytotoxicity against p53 null human U-937 cells harboring p53 V272M mutant incubated for 48 hrs by CCK-8 assay; format: functional, cell-based; conditions: U-937, 48 h
# U-937 [33] = assay: Cytotoxicity against p53 null human U-937 cells harboring empty vector incubated for 48 hrs by CCK-8 assay; format: functional, cell-based; conditions: U-937, 48 h
# [34] = Half life in iv dosed human; format: ADME, organism-based; conditions: in vivo
# [35] = Half life in po dosed human; format: ADME, organism-based; conditions: in vivo
# [36] = Half life in iv dosed rat; format: ADME, organism-based; conditions: in vivo
# [37] = Half life in iv dosed mouse; format: ADME, organism-based; conditions: in vivo
# [38] = target: T1, PML-RARalpha (Homo sapiens); assay: Induction of Flag-tagged PML/RARalpha (unknown origin) degradation overexpressed in HEK293T cells at 13 to 65 uM incubated for 16 hrs by Western blot analysis; format: cell-based; conditions: dose 13-65 µM
# [39] = target: T1, PML-RARalpha (Homo sapiens); assay: Induction of Flag-tagged PML/RARalpha (unknown origin) degradation overexpressed in HEK293T cells at 4.2 to 21 uM incubated for 16 hrs by Western blot analysis; format: cell-based; conditions: dose 4.2-21 µM
# [40] = system: GTPase KRas (Homo sapiens), P01116 [G12C]; assay: Binding affinity to KRAS-G12C mutant (unknown origin) with exposed Cys12 assessed as increase in melting temperature at 1:15 ratio in HEPES at pH 7.5 by DSF analysis
# Sequence of GTPase KRas (Homo sapiens), P01116 [G12C] (P01116 whole entry G12C): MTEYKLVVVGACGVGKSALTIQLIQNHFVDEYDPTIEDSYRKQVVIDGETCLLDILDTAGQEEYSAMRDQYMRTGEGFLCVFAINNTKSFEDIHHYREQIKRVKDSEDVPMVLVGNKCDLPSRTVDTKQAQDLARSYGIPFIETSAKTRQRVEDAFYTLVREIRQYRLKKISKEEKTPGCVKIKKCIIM
# [41] = target: Replicase polyprotein 1ab (Severe acute respiratory syndrome coronavirus 2) (UniProt P0DTD1); assay: Binding affinity to SARS-CoV-2 MPro with exposed Cys145 assessed as increase in melting temperature at 1:15 ratio in HEPES at pH 7.5 by DSF analysis
# [42] = Plasma stability in dog assessed as half life at […] measured upto 120 mins by LC-MS analysis; format: ADME, cell-free, Canis lupus familiaris
compound,measurement,setting,value
O=[As]O [SODIUM ARSENITE],IC50,"NB-4 [1]; Homo sapiens, NB-4, 48 h",0.11 µM
same,Activity,[2],Active
S=[As](=S)S[As](=S)=S,IC50,NB-4 [1]; nb-4,1.2 µM
same,Activity,[3],Active
same,Activity,[4],Active
same,Activity,[5],Active
CCN(CC)CCOC(=O)c1ccc(N)cc1 [PROCAINE],half-life,[6],9.83 min
same,half-life,[7],4.5 min
same,half-life,[8],1.4 min
S1[As]2S[As]3S[As]2S[As]13,Activity,[9],inactive
O=S(=O)(O)c1cc(O)c2c(O)c(/N=N/c3ccccc3[As](=O)(O)O)c(S(=O)(=O)O)cc2c1,IC50,"NB-4 [1]; Homo sapiens, NB-4, 48 h",> 50 µM
O=[As][As+](=O)[O-] (stereo not given) [ARSENIC TRIOXIDE],IC50,"NB-4 [1]; Homo sapiens, NB-4, 48 h",0.94 µM
same,viability at 3 µM,NB-4 [10],93.8%
same,Activity,NB-4 [11],2.54%
same,Activity,NB-4 [12],3.48%
same,Activity,NB-4 [13],0.23%
same,viability at 9 µM,NB-4 [14],93.6%
same,Activity,NB-4 [15],2.83%
same,Activity,NB-4 [16],3.42%
same,Activity,[17],0.81
same,Activity,[18],0.6
same,Activity,[19],0.57
same,Activity,[20],0.49
same,Activity,[21],0.41
same,Activity,NB-4 [22],1.65%
same,Activity,NB-4 [23],1.93%
same,Activity,NB-4 [24],1.7%
same,Activity,NB-4 [25],2%
same,Activity,NB-4 [26],0.17%
same,viability at 27 µM,NB-4 [27],93.3%
same,Activity,NB-4 [28],2.88%
same,Activity,NB-4 [29],3.59%
same,Activity,NB-4 [30],0.21%
same,fold change (FC),[31],2.2
same,IC50,U-937 [32],1.07 µM
same,IC50,U-937 [33],> 2 µM
same,half-life,[34],60 min
same,half-life,[35],360 min
same,half-life,[36],~222 min
same,half-life,[37],~258 min
O=[As]12O[As]3(=O)O[As](=O)(O1)O[As](=O)(O2)O3,IC50,NB-4 [1]; nb-4,5.56 µM
same,Activity,[38],Active
S=[As][As]=S (stereo not given),Activity,[9],inactive
S1[As]2S[As]3S[As]1S[As](S2)S3,IC50,NB-4 [1]; nb-4,1.99 µM
same,Activity,[39],Active
same,Activity,[9],inactive
C=CC(=O)N1CCN(c2ncnc3c(F)c(-c4c(O)cccc4F)c(Cl)cc23)CC1,Activity,[40],Active
COC(=O)C[C@H](NC(=O)[C@H](C)NC(=O)[C@@H](NC(=O)OCc1ccccc1)C(C)C)C(=O)CF (Cbz-Val-Ala-Asp(OMe)-CH2F),Activity,[41],Active
Nc1ccc([As](=O)(O)O)cc1 [ARSANILIC ACID],IC50,"NB-4 [1]; Homo sapiens, NB-4, 48 h",> 50 µM
CC(=O)Oc1ccc(C(c2ccc(OC(C)=O)cc2)c2ccccn2)cc1 [BISACODYL],half-life,[42],2.06 min

# — ChEMBL document CHEMBL5375988, “AcGlcAs: A Novel P53-Targeting Arsenical with Potent Cellular Uptake and Cancer Cell Selectivity” (J Med Chem, 2023)
